Test results published in the NIST ThermoML archive (doi:10.1021/acs.jced.6b00516).

What was measured:
[1] = for viscosity / speed of sound / mass density: 102 kPa, Liquid; for viscosity: Concentric cylinders viscometry; for speed of sound: Frequency=3 MHz, Sing-around technique in a fixed-path interferometer; for mass density: Vibrating tube method; for surface tension liquid-gas: Sessile Drop
[2] = xn = mol fraction of the nth substance listed; conditions: 102 kPa, Liquid, Concentric cylinders viscometry, x2 = 0

CCCCC1CCCCC1 [butylcyclohexane]
[1]
Conditions | mass density [kg/m3] | speed of sound [m/s] | surface tension liquid-gas [mN/m] | viscosity [mPa·s]
293.15 K | 799.33 | 1328.4 | – | 1.31
294 K | – | – | 26.7 | –
303.15 K | 791.82 | 1288.7 | – | 1.12
313.15 K | 784.28 | 1249.5 | – | 0.961
323.15 K | 776.7 | 1210.8 | – | 0.837
333.15 K | 769.09 | 1172.8 | – | 0.735
343.15 K | 761.4 | – | – | 0.648
353.15 K | 753.7 | – | – | 0.576

CCCCCCCCCCCCCCCC [hexadecane]
[1]
Conditions | mass density [kg/m3] | speed of sound [m/s] | surface tension liquid-gas [mN/m] | viscosity [mPa·s]
293.15 K | 773.41 | 1357.2 | – | 3.44
294 K | – | – | 27.1 | –
303.15 K | 766.47 | 1319.5 | – | 2.72
313.15 K | 759.55 | 1283.3 | – | 2.21
323.15 K | 752.63 | 1247.3 | – | 1.83
333.15 K | 745.71 | 1212 | – | 1.54
343.15 K | 738.8 | – | – | 1.31
353.15 K | 731.9 | – | – | 1.14
363.15 K | – | – | – | 0.994
373.15 K | – | – | – | 0.878

CCCCCCCCCCCCCCCC [hexadecane] + CCCCC1CCCCC1
[2]
Conditions | viscosity [mPa·s]
293.15 K | 3.44
303.15 K | 2.72
313.15 K | 2.21
323.15 K | 1.83
333.15 K | 1.54
343.15 K | 1.31
353.15 K | 1.14

Cc1ccccc1 [toluene]
[1]
Conditions | mass density [kg/m3] | speed of sound [m/s] | surface tension liquid-gas [mN/m] | viscosity [mPa·s]
293.15 K | 866.84 | 1326.6 | – | 0.607
294.2 K | – | – | 28.6 | –
303.15 K | 857.52 | 1283.6 | – | 0.54
313.15 K | 848.14 | 1241.1 | – | 0.483
323.15 K | 838.68 | 1199.2 | – | 0.434
333.15 K | 829.15 | 1157.7 | – | 0.391
343.15 K | 819.6 | – | – | 0.349
353.15 K | 809.8 | – | – | 0.307

Cc1ccccc1 [toluene] + CCCCC1CCCCC1
[2]
Conditions | viscosity [mPa·s]
293.15 K | 0.607
303.15 K | 0.54
313.15 K | 0.483
323.15 K | 0.434
333.15 K | 0.391
343.15 K | 0.349
353.15 K | 0.307
